Counter-ions that a name gives are not always drawn. Like-named read-outs stand apart in the source and are kept apart here.
Columns and labels:
5-HT3 = molecular target: T1, 5-HT3 (Rattus norvegicus, UniProt P35563); assay: biochemical; type: binding, Male Sprague-Dawley rats
T1 sequence (P35563 24-483): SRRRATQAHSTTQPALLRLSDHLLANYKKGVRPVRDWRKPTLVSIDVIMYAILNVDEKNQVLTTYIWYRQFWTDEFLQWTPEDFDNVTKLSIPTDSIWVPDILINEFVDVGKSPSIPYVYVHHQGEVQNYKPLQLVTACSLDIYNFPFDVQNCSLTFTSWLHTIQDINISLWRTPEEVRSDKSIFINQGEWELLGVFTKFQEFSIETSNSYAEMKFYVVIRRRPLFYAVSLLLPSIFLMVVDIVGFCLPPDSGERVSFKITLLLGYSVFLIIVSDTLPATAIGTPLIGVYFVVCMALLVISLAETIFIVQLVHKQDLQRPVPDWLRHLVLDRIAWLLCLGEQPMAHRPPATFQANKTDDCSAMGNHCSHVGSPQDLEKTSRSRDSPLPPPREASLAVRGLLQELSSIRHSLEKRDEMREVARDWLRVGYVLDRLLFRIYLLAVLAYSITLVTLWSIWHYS
Protocol: A number of compounds in accordance with the present invention were tested for their 5-HT3 and D2 binding affinities in accord with the following procedures.
Male Sprague-Dawley rats (175-220 g) were sacrificed by decapitation and their brains removed rapidly. The entorhinal cortex was used for the 5-HT3 (5-hydroxytryptamine) binding assay and the remainder of the brain, minus the brain stem and cerebellum, was used for the D2 (dopamine) binding assay. The entorhinal cortex was harvested and prepared on the day of the assay.
The entorhinal cortex was homogenized in 20 volumes of cold 50 mM HEPES buffer, pH 7.4, while the remaining brain tissue was homogenized in 20 volumes of cold 50 mM Tris, pH 7.4. The homogenates were centrifuged at 4800×g for 15 minutes at 5° C. and the supernatants decanted. Pellets were resuspended in the original volume of HEPES or Tris. Homogenates were centrifuged and the supernatants decanted. Pellets were resuspended in the same volume of HEPES or Tris and incubated at 37° C. for 45 minutes to remove endogenous neurotransmitters. Homogenates were centrifuged and the supernatants were decanted. Pellets for D2 assays were stored at -50° C. until the day of the assay. The pellets for the 5-HT3 assay (entorhinal cortex) were resuspended in the appropriate amount of HEPES buffer and used promptly. Modifications of published assays for [^3 H]GR65630 (Kilpatrick et al., Nature: 330, 746-748 (1987)) and [^3 H]raclopride (Dewar et al., J. Pharmacol. Exp. Ther.: 250, 696-706 (1989) and Lidow et al., Proc. Natl. Acad. Sci. USA: 86, 6412-6416 (1989)) were used for the 5-HT3 and D2 binding assays, respectively.
Briefly, 0.25 ml of homogenate was incubated with either 0.2 nM of [^3 H]GR65630 or 1.0 nM of [^3 H]raclopride in a final volume of 0.5 ml. D2 binding also requires sodium chloride and potassium chloride (120 mM and 5 mM, final concentration, respectively). In the 5-HT3 assay, non-specific binding was defined in the presence of 100 uM quipazine. In the D2 assay, non-specific binding was defined in the presence of 100 uM of (+/-) sulpiride. Both assays were incubated at room temperature; [^3 H]GR65630 for 40 minutes and [^3 H]raclopride for 60 minutes. Test compounds (0.1 ml) were added to incubates where appropriate. Bound ligand was separated from free ligand by filtration and quantified using liquid scintillation spectrophotometry. IC50 values were calculate for all test compounds.

Ferret = assay: Cisplatin Ferret Assay--Antiemetic Screening; type: in vivo, Male ferrets; settings: for inhibition in vivo at 0.1 mg/kg / ED50: Mustela putorius, iv, 4 h; for inhibition in vivo at 0.1 mg/kg: read-out: Ferret Cisplatin Test % Prot, 0.1 mg/Kg; for ED50: read-out: Ferret Cisplatin Test ED50
Protocol: Male ferrets (castrated, descented, 1-2 kg) were purchased from Triple F Farms, Syre, Pa. Ferrets were housed four in a cage with a 12 hour light cycle and were fed ad libitum with Ralston Purina Cat Chow. Each ferret was used unfasted for the assay after a minimum of a 24 hour acclimation time in animal facility.
Ferret Preparation. Each ferret was anesthetized with 5% isoflurane-O2in a 20 gallon aquarium for 2 to 5 minutes. After removal of the anesthetic gas, the animals were removed and weighed. Injections were made into the dorsal front paw vein using a tourniquet and a 1 ml tuberculin syringe with a 25 g needle while the animal was maintained under anesthesia using a small nose cone delivering 5% isoflurane-O2. Cisplatin was injected using a 3 ml or 5 ml syringe in the opposite paw from the study compound or saline. Recovery time from anaesthesia was 5 to 8 minutes.
Drug Preparation. Cisplatin bulk powder was weighed and dissolved in normal saline at 75° C. to provide a 5 mg/ml solution (90 mg was placed in a scintillation vial and qs with 18 ml saline). The solution was stirred and maintained at 40° C. until ready for use. The study drug was weighed and dissolved in normal saline at room temperature to provide a 1 mg/ml solution (10 mg was placed in a scintillation vial and qs with 10 ml saline). Suspensions were heated to 40° C. to bring the study compound into solution. Compounds not soluble under these conditions were not assayed.
Assay. Cisplatin was injected i.v. at 10 mg/kg into twelve anesthetized ferrets daily at time zero. Normal saline (0.5 ml) or the study compound (0.1 or 1.0 mg/kg) was injected 30 minutes later in groups of three anesthetized ferrets. Order of treatment and treatment dose was selected at random, with the remaining treatment dose assayed in the next experiment.
Experimental Observations and Data Collection. Ferrets were viewed individually. The time and number of emetic episodes were recorded for four hours. Zero time was equivalent to the time of cisplatin injection. […] Retches were recorded but not counted. The total number of episodes for each of the four groups of three ferrets (+/-S.E.) was averaged and the effect of treatment (% protection) was calculated as the percent reduction of emetic episodes compared to controls. [formula]
Percent protection values were determined from experimental controls. Experimental controls were those obtained from the day of the experiment. Onset times of the first episode were averaged and recorded for each group. Prodromal signs (lip licking, slit eyes, head shaking, salivation, scratching, clawing, walking backward, sedation, urination, and defecation) were also averaged and recorded.

[1] = 0.2 nM [3H]GR65630, rat entorhinal cortex, 40 minutes, room temperature, read-out: 5-HT3 IC50
[2] = 0.1 mg/kg i.v., 30 minutes after cisplatin 10 mg/kg i.v., percent reduction of emetic episodes vs controls, four hours
[3] = i.v., 30 minutes after cisplatin 10 mg/kg i.v., emetic episodes over four hours

Row | SMILES | IC50 (5-HT3; [1]) [nM] | inhibition in vivo at 0.1 mg/kg (Ferret; [2]) [%] | ED50 (Ferret; [3]) [mg/kg] | inhibition in vivo at 0.1 mg/kg (Ferret) [%] | IC50 (5-HT3) [nM] | Ferret Cisplatin Test % Prot, 0.1 mg/Kg (Ferret; [2]) [%] | ED50 (Ferret) [mg/kg]
1 | CN1Cc2nc[nH]c2C[C@H]1C(=O)Nc1nc2ccccc2s1 [Compd 22] | 37.2 | 14 | – | – | – | – | –
2 | COC(=O)c1ccccc1NC(=O)[C@H]1Cc2[nH]cnc2CN1C [Compd 4] | 12.1 | 33 | 0.1 | – | – | – | –
3 | CCN1Cc2nc[nH]c2C[C@H]1C(=O)Nc1ccccc1O [Compd 18] | 17.6 | 46 | 0.16 | – | – | – | –
4 | CN1[C@H](C(=O)Nc2ccccc2O)Cc2[nH]cnc2C1(C)C [Compd 24] | 47.2 | 48 | 0.025 | – | – | – | –
5 | CN1Cc2nc[nH]c2C[C@@H]1C(=O)Nc1ccccc1 [Compd 9] | 57.2 | 26 | 0.33 | – | – | – | –
6 | CCOc1ccccc1NC(=O)[C@@H]1Cc2[nH]cnc2CN1C [Compd 17] | 15.4 | 58 | 0.2 | – | – | – | –
7 | CN1Cc2nc[nH]c2C[C@H]1C(=O)Nc1ccccc1F [Compd 29] | 335 | 88 | 0.024 | – | – | – | –
8 | CN1Cc2nc[nH]c2C[C@H]1C(=O)Nc1ccccc1NC(=O)c1ccccc1 [Compd 26] | 289 | 0 | – | – | – | – | –
9 | CN1Cc2nc[nH]c2C[C@@H]1C(=O)Nc1nc2ccccc2s1 [Compd 13, (R)-6-(2-benzothiazolylaminocarbonyl)-5-methyl-4,5,6,7-tetrahydroimidazo[4,5-c]pyridine] | 71.5 | 76 | 0.074 | – | – | – | –
10 | CC(=O)c1ccccc1NC(=O)[C@H]1Cc2[nH]cnc2CN1C [Compd 5] | 4.26 | 22 | 0.123 | – | – | – | –
11 | CN1Cc2nc[nH]c2C[C@H]1C(=O)c1cccs1 [Compd 28] | 648 | – | – | 0 | – | – | –
12 | COc1ccc(Cl)cc1NC(=O)[C@H]1Cc2[nH]cnc2CN1C [Compd 2] | 10 | 31 | 0.4 | – | – | – | –
13 | CN1Cc2nc[nH]c2C[C@H]1C(=O)Nc1ccccc1N [Compd 42] | 3490 | 39 | 0.23 | – | – | – | –
14 | CC(=O)c1ccccc1NC(=O)[C@@H]1Cc2[nH]cnc2CN1C [Compd 39, (S)-6-(2-acetylphenylaminocarbonyl)-5-methyl-4,5,6,7-tetrahydroimidazo[4,5-c]pyridine] | 4.18 | 65 | 0.045 | – | – | – | –
15 | CCN(CC)CCNC(=O)c1cc(Cl)c(N)cc1OC [Metaclopramide, reference compound] | – | 17 | 4.08 | – | 514 | – | –
16 | COc1ccc(OC)c(NC(=O)[C@@H]2Cc3nc[nH]c3CN2C)c1 [Compd 30, (S)-6-(2,5-dimethoxyphenylaminocarbonyl)-5-methyl-4,5,6,7-tetrahydoimidazo[4,5-c]pyridine dihydrochloride] | 69.7 | 5 | – | – | – | – | –
17 | COc1ccc2oc(C(=O)[C@@H]3Cc4[nH]cnc4CN3C)cc2c1 [Compd 41] | 12900 | – | – | 9 | – | – | –
18 | CC1(C)N[C@H](C(=O)Nc2ccccc2Oc2ccccc2)Cc2[nH]cnc21 [Compd 49, (S)-6-(2-phenoxy-phenylaminocarbonyl)-4,4-dimethyl-4,5,6,7-tetrahydroimidazo[4,5-c]pyridine] | 8.55 | 76 | 0.022 | – | – | – | –
19 | Cc1nccn1CC1CCc2c(c3ccccc3n2C)C1=O (stereo not shown) [Ondansetron, reference compound] | – | 77 | 0.041 | – | – | – | –
20 | COc1ccccc1NC(=O)[C@H]1Cc2[nH]cnc2CN1 [Compd 8] | 10.4 | 62 | – | – | – | – | –

Row | SMILES | IC50 (5-HT3; [1]) [nM] | inhibition in vivo at 0.1 mg/kg (Ferret; [2]) [%] | ED50 (Ferret; [3]) [mg/kg] | inhibition in vivo at 0.1 mg/kg (Ferret) [%] | IC50 (5-HT3) [nM] | Ferret Cisplatin Test % Prot, 0.1 mg/Kg (Ferret; [2]) [%] | ED50 (Ferret) [mg/kg]
21 | COc1ccccc1NC(=O)[C@@H]1Cc2[nH]cnc2CN1C [Compd 6] | 4.86 | 77 | 0.023 | – | – | – | –
22 | CN1Cc2[nH]cnc2C[C@@H]1C(=O)Nc1nccs1 [Compd 12] | 273 | – | – | – | – | 40 | –
23 | COc1ccccc1NC(=O)[C@@H]1Cc2nc[nH]c2C(C)(C)N1 [Compd 20] | 21.7 | – | 0.008 | – | – | 72 | –
24 | CN1Cc2nc[nH]c2C[C@H]1C(=O)Nc1cccc2c1NCCC2 [Compd 36] | 103 | 70 | 0.081 | – | – | – | –
25 | COc1ccccc1NC(=O)[C@@H]1Cc2[nH]cnc2CN1C(C)=O [Compd 47, (S)-5-acetyl-6-(2-methoxyphenylaminocarbonyl)-4,5,6,7-tetrahydroimidazo[4,5-c]pyridine] | – | 81 | 0.044 | – | – | – | –
26 | CN1Cc2nc[nH]c2C[C@H]1C(=O)Nc1cccc(F)c1F [Compd 31] | 644 | 91 | 0.068 | – | – | – | –
27 | CCOc1ccccc1NC(=O)[C@H]1Cc2[nH]cnc2CN1C [Compd 10] | 4.14 | 29 | 0.31 | – | – | – | –
28 | COc1ccccc1NC(=O)[C@@H]1Cc2[nH]cnc2C(C)(C)N1C [Compd 25] | 14.1 | 93 | 0.026 | – | – | – | –
29 | COc1ccc(Cl)cc1NC(=O)[C@@H]1Cc2[nH]cnc2CN1C [Compd 7] | 6.26 | 57 | 0.14 | – | – | – | –
30 | CN1Cc2nc[nH]c2C[C@H]1C(=O)Nc1cccc2nsnc12 [Compd 23] | 15.9 | 100 | 0.016 | – | – | – | –
31 | CN1Cc2nc[nH]c2C[C@H]1C(=O)c1cc2ccccc2s1 [Compd 32, 6-(2-benzo[b]thiophenylcarbonyl)-5-methyl-4,5,6,7-tetrahydroimidazo[4,5-c]pyridine] | 234 | – | – | 41 | – | – | 0.11
32 | CN1Cc2nc[nH]c2C[C@@H]1C(=O)Nc1ccccc1Oc1ccccc1 [Compd 11] | 8.19 | 15 | 0.47 | – | – | – | –
33 | CN1Cc2nc[nH]c2C[C@H]1C(=O)Nc1ccccc1Oc1cccc(C(F)(F)F)c1 [Compd 44] | 9.52 | 1 | 0.26 | – | – | – | –
34 | CN1Cc2nc[nH]c2C[C@H]1C(=O)c1cc2ccccc2o1 [Compd 33, 6-(2-benzo[b]furanylcarbonyl)-5-methyl-4,5,6,7-tetrahydroimidazo[4,5-c]pyridine] | 2020 | – | – | 31 | – | – | 0.43
35 | CC(=O)c1ccccc1NC(=O)[C@@H]1Cc2[nH]cnc2C(C)(C)N1 [Compd 48] | 158 | 100 | 0.0098 | – | – | – | –
36 | COC(=O)c1ccccc1NC(=O)[C@@H]1Cc2[nH]cnc2CN1C [Compd 16] | 29 | 42 | 0.01 | – | – | – | –
37 | CN1Cc2nc[nH]c2C[C@H]1C(=O)Nc1c(F)cccc1F [Compd 34] | 612 | 59 | 0.15 | – | – | – | –
38 | CN1Cc2nc[nH]c2C[C@@H]1C(=O)c1ccccc1 [Compd 19, (R)-6-benzoyl-5-methyl-4,5,6,7-tetrahydroimidazo[4,5-c]pyridine] | – | – | – | 8 | 58.5 | – | –
39 | CN1C2CCCC1CC(NC(=O)c1nn(C)c3ccccc13)C2 (stereo not shown) [Granisetron, reference compound] | – | 71 | 0.03 | – | – | – | –

— patent US5262537A, “Derivatives of 4,5,6,7-tetrahydroimidazo-[4,5-c]pyridinyl-6-carboxylic acid” (priority 1993, dated 1993)
